Results: article PMC9296036, “A peptide interfering with the dimerization of oncogenic KITENIN protein and its stability suppresses colorectal tumour progression” (Clinical and Translational Medicine, 2022)
Ends that are not written are not given here.

Target: T1, KITENIN homodimer (Homo sapiens, UniProt Q8TAA9)
T1 construct: Lysates of 293T cells expressing full‐length KITENIN‐myc; expressed in transfected cells; host or cells: Caco2
T1 sequence (Q8TAA9 1-524): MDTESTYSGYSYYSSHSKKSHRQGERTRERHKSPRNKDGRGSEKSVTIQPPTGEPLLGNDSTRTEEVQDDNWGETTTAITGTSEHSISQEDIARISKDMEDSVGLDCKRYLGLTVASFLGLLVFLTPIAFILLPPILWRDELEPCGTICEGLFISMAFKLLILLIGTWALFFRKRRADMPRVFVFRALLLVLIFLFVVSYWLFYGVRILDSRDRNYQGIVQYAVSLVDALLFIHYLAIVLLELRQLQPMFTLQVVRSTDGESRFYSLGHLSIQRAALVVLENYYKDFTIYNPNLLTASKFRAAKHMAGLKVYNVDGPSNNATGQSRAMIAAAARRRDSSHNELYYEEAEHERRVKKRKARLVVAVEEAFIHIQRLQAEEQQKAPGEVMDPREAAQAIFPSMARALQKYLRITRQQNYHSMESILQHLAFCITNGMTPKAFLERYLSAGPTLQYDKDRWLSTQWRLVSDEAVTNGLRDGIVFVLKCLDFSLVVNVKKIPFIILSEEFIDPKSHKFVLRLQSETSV
Experiment: In vitro pull-down of purified KITENIN-GST and KITENIN-His
Type: biochemical
Details: KDIP 5 μM, 4°C, 2 h, GST pull-down
Experimental: GST‐KITENIN or its derivatives were immobilized on glutathione‐sepharose beads. Myc‐tagged KITENIN was incubated with GST‐tagged KITENIN or its derivative proteins immobilized on glutathione‐sepharose as indicated. The bound protein complexes were eluted and analysed by SDS–PAGE followed by IB. To detect in vitro KITENIN homodimerization, […] GST‐KITENIN was incubated with Ni‐NTA‐purified KITENIN‐His and KDIP (5 μM) in the pull‐down buffer (50‐mM Tris.Cl [pH 7.5], 1‐mM dithiothreitol [DTT] 4% [v/v] glycerol, .1 mg/ml of BSA, 5‐mM MgCl2, 1‐mM ATP and 50‐mM NaCl) at 4°C for 2 h. […]
FIGURE 2 KAI1 C‐terminal interacting tetraspanin (KITENIN) dimerization‐interfering peptide (KDIP) suppresses KITENIN‐induced enhanced cell invasion through the inhibition of the homodimerization of KITENIN. […] After 48 h of treatment, KITENIN transcripts in cells were analysed by the 2^−ΔΔ ^CT method using Q‐PCR. […] Caco2 cells were co‐transfected with KITENIN‐V5/Myc and treated with or without KDIP or scrambled peptide (scr) and were immunoprecipitated with anti‐V5 antibody and detected by indicated antibodies. Numerals indicated a quantification of the MYC bands normalized to the corresponding V5 bands (left panel). […] The histogram represents invading cells, which were counted at four chosen areas and shown by bar graphs (mean ± SEM, n = 4, ^** p < .01). […]

Sequence: YARVRRRGPRRWRLVSDEAV [KDIP]
- dimerization of purified KITENIN proteins in vitro (in words): directly reduced
